Test results reported in patent EP0107907A2, “Improvements in or relating to immunomodulating agents” (ELI LILLY AND COMPANY, priority 1982, dated 1984).
Marks after values point to notes of the source that are not given here.

How the values were obtained:
[1] = Solubility; type: physicochemical
Source text: A53868 factor A is soluble in water and dimethyl sulfoxide and is insoluble in most organic solvents.
Soluhility: soluble in water and dimethyl sulfoxide; insoluble in most organic solvents

[2] = tested on: Candida albicans A26; experiment: Protection of mice by pretreatment against lethal Candida albicans infection; type: in vivo, CD1 mice
Description: In this test CD1 mice weighing 18-20 g were pretreated intraperitoneally or subcutaneously with test compound at 5, 3, and 1 days before intravenous infection with 5 x 10^6 viable cells of Candida albicans A26. Test compound was solubilized in pyrogen-free water and administered in 0.25 ml of solution. Ten mice were used for each concentration tested. Ten infected mice were treated intraperitoneally or subcutaneously at 5, 3, and 1 days preinfection with 0.25 ml of pyrogen-free water as controls. The immunomodulatory effects of the test compound were studied in X-irradiated mice exposed to 400R 24 hours preinfection, or mice treated intraperitoneally with 50 mg/kg cyclophosphamide 5, 3, and 1 days preinfection. The mice were caged, watered, and fed daily. The number of surviving mice was counted daily. Normal mice surviving 18 days post-infection were given an arbitrary 19-day survival time. X-irradiated or cyclophosphamide-treated mice surviving 12 days post-infection were given an arbitrary 13 day survival time. The average survival time was calculated for each group. Significant differences between treated and untreated groups of mice were determined by "T" test. Compound 1 was devoid of intrinsic in vitro antifungal activity against C. albicans A26 in a standard agar-diffusion test.

[3] = tested on: peritoneal macrophages; experiment: In vivo macrophage activation (peritoneal macrophages from treated mice, cytotoxicity against P815 cells); design: species or system BALB/c mice
Description: In another procedure, peritoneal macrophages were harvested after 3, 5, or 10 days from composition- treated mice by peritoneal lavage and purified by adherence on plastic. Approximately 4 x 10^5 macrophages in 16-mm wells were overlaid with 4 x 10^4 P815 cells contained in 2 ml of Roswell Park Memorial Institute.1640 Medium supplemented with 20 percent fetal calf serum. All cultures were maintained in a humidified, 5-percent COZ-in-air incubator at 37°C., and cytotoxicity was assessed at 48 hours on the basis of viable cell counts in a hemocytometer. Triplicate cultures were maintained for each group; the mean cell count and standard error (S.E.) were calculated. […] The ratio of macrophages to target cells was approximately 10:1 at the beginning of each experiment. The percentage of growth inhibition of P815 cells due to composition-mediated macrophage activation was calculated by comparison to that of P815 cells grown in the presence of macrophages from buffer- treated animals.

[4] = tested on: murine macrophages; experiment: In vitro activation of murine macrophages (macrophage-mediated tumor cytotoxicity against P815 cells); type: cell-based; details: 48 hours
Description: In one procedure, the ability of the compounds to activate murine macrophages in vitro was determined. Peritoneal macrophages were exposed to a compound of formula 1, 2, or 3 simultaneously with the addition of target cells. Tumor cytotoxicity of these treated macrophages was determined 48 hours later by trypan blue enumeration. The percentage of growth inhibition of P815 cells due to composition-mediated macrophage activation was calculated by comparison to that of P815 cells grown in the.presence of macrophages exposed to buffer.

[5] = Cyclophosphamide-Pretreated Mice, dose 25 mg/kg
[6] = Cyclophosphamide-Pretreated Mice, dose 50 mg/kg

C=C(CP(=O)(O)O)NC(=O)[C@H](CC(C)C)NC(=O)CN [Compound 1, N^2-glycyl-N-(1-methylene-2-phosphonoethyl)leucinamide]
solubility in most organic solvents ([1]; most organic solvents): insoluble
solubility in water and dimethyl sulfoxide ([1]; water and dimethyl sulfoxide): soluble
Average Survival Time [2, 5]: 6.8 days
Percent Increase In Average Survival Time Above Untreated Controls [2, 5]: 54.5* Percent
Average Survival Time [2, 6]: 6.1 days
Percent Increase In Average Survival Time Above Untreated Controls [2, 6]: 38.6* Percent
Average Survival Time ([2]; Normal Mice, dose 12.5 mg/kg): 9.1 days
Percent Increase In Average Survival Time Above Untreated Controls ([2]; Normal Mice, dose 12.5 mg/kg): 68.0* Percent
Average Survival Time ([2]; Normal Mice, dose 50 mg/kg): 7.1 days
Percent Increase In Average Survival Time Above Untreated Controls ([2]; Normal Mice, dose 50 mg/kg): 31.5* Percent
protecting mice from a lethal Candida albicans A26 infection ([2]; preinfection treatments at 5, 3, and 1 days, intraperitoneally or subcutaneously): significantly effective
Percent Macrophage Cytotoxicity at Day ([3]; dose 10 mg/kg, Day 0): 0%
Percent Macrophage Cytotoxicity at Day ([3]; dose 10 mg/kg, Day 3): 8%
Percent Macrophage Cytotoxicity at Day ([3]; dose 10 mg/kg, Day 5): 20%
Percent Macrophage Cytotoxicity at Day ([3]; dose 10 mg/kg, Day 10): 0%
Percent Macrophage Cytotoxicity at Day ([3]; dose 100 mg/kg, Day 0): 0%
Percent Macrophage Cytotoxicity at Day ([3]; dose 100 mg/kg, Day 3): 43%
Percent Macrophage Cytotoxicity at Day ([3]; dose 100 mg/kg, Day 5): 25%
Percent Macrophage Cytotoxicity at Day ([3]; dose 100 mg/kg, Day 10): 0%
Percent Macrophage Cytotoxicity ([4]; 1.56 µg/ml, Experiment 2): 0%
Percent Macrophage Cytotoxicity ([4]; 3.12 µg/ml, Experiment 1): 11%
Percent Macrophage Cytotoxicity ([4]; 3.12 µg/ml, Experiment 2): 14%
Percent Macrophage Cytotoxicity ([4]; 6.25 µg/ml, Experiment 1): 0%
Percent Macrophage Cytotoxicity ([4]; 6.25 µg/ml, Experiment 2): 0%
Percent Macrophage Cytotoxicity ([4]; 12.5 µg/ml, Experiment 1): 27%
Percent Macrophage Cytotoxicity ([4]; 12.5 µg/ml, Experiment 2): 39%
Percent Macrophage Cytotoxicity ([4]; 25 µg/ml, Experiment 1): 43%
Percent Macrophage Cytotoxicity ([4]; 25 µg/ml, Experiment 2): 32%
Percent Macrophage Cytotoxicity ([4]; 50 µg/ml, Experiment 1): 35%
Percent Macrophage Cytotoxicity ([4]; 50 µg/ml, Experiment 2): 29%
Percent Macrophage Cytotoxicity ([4]; 100 µg/ml, Experiment 1): 53%
